Assay results as given in ChEMBL document CHEMBL5604062, “ASAP - ZIKV NS2B-NS3 protease fluorescence dose response” (2024).
“And” between values parts separate entries of the source, which are not always exact repeats. Equal entries are not always repeated.

target: Nonstructural protein 3 (Zika virus, UniProt A0A024AXB9); experiment: Functional biochemical assay to identify treatments for viral infectious disease that targets Zika NS2B-NS3 protease. Utilizing a direct enzyme activity measurement method, reading the fluorescence intensity is used to characterize the relative potency of inhibitors as IC50.; set-up: species or system PRVABC59
Sequence (A0A024AXB9 whole entry): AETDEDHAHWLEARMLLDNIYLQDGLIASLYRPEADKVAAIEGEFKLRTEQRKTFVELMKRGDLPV

Row | SMILES | IC50
1 | O=C(O)c1cc(Cl)ccc1NS(=O)(=O)c1ccc(-c2cncs2)cc1 | 34.4 µM
2 | CCn1c(=O)c(N2CC3(CCCCC3)C[C@H]2CO)nc2ccccc21 | > 99.5 µM
3 | Cc1c(C(=O)Nc2cc(C(=O)N3CCC(O)CC3)ccn2)cc(C2CC2)n1C | > 25 µM
4 | Cc1c(F)cc(C(=O)Nc2cccc(CN)c2)c(F)c1NC(=O)OCc1ccccc1 | 63.9 µM
5 | Cn1ncc2c(C(=O)Nc3ccc4c(c3)CNC4)cc(C3CC3)nc21 | 5.07 µM
6 | Cc1ccc(C)n1-c1ccc(Cl)cc1C(=O)Nc1ccc2c(c1)CNC2 | > 25 µM
7 | c1ccc2c([C@H]3CCN(CCC4CCOCC4)C3)c[nH]c2c1 | > 99.5 µM
8 | O=C(O)c1nn(-c2ccccc2)cc1Cc1c[nH]c2ccc(Cl)cc12 | > 99.5 µM
9 | CC(C)Cn1cc2c(C(=O)Nc3ccc4c(c3)CNC4)cc(Cl)cc2n1 | 0.269 µM
10 | NCc1ccc(O)c(NC(=O)c2cc(Cl)cc(NC(=O)OCc3ccccc3)c2)c1 | 18.1 µM
11 | O=C(O)c1cc(Cl)ccc1S(=O)(=O)N[C@H]1CC[C@H](Oc2cnccn2)CC1 | > 99.5 µM
12 | NCc1ccc(COc2ccc(-c3ccc(N)nc3)c3c2OB(O)CC3)cc1 | > 99.5 µM
13 | Cc1noc(C)c1C(=O)N[C@@H](C(=O)Nc1cccc(CN)c1)c1ccc(OCc2ccccc2)cc1 | > 99.5 µM
14 | c1ccc2c(CN3CCC(c4nn[nH]n4)CC3)c[nH]c2c1 | > 99.5 µM
15 | NCc1cccc(NC(=O)[C@H](NC(=O)OCc2ccccc2)c2ccc(OCCc3cscn3)cc2)c1 | 79.5 µM
16 | CCCC[C@H](NC(C)=O)C(=O)N[C@H](C(=O)NCc1ccc(C(N)=O)cc1)c1ccc(OCc2ccccc2)cc1 | > 99.5 µM
17 | CCC(C)(C)C(=O)N[C@H](C(=O)Nc1cccc(CN)c1)c1ccc(OCc2ccccc2)cc1 | > 99.5 µM
18 | NCCCc1ccc(C(=O)N2CC(c3cccc(Br)c3)C2)cc1 | > 99.5 µM
19 | O=C(Cn1ccnc(N2CC[C@H](CO)C2)c1=O)NCc1nccs1 | > 99.5 µM
20 | CS(=O)(=O)c1ccc(N2CCN(C(=O)C3CCN(c4ccc(C=O)cc4)CC3)CC2)c([N+](=O)[O-])c1 | > 0.782 µM
21 | Cc1cc(C(=O)Nc2cc(-c3cccnc3)ccn2)nn1CCN | > 25 µM
22 | O=C(Nc1ccc2c(c1)CNC2)c1cc(Br)cc2[nH]c(C3CCOCC3)nc12 | 0.59 µM
23 | NCc1cccc(NC(=O)c2cc(Br)cc(NC(=O)OCc3ccccc3)c2)c1 | 7.91 µM
24 | CCn1c(=O)c(N2CC[C@H]3[C@H]2[C@H]3C(F)(F)F)nc2ccccc21 | > 99.5 µM
25 | O=C(O)c1cc(Cl)ccc1CS(=O)(=O)c1ccc(Oc2ccccc2Cl)cc1 | > 99.5 µM
26 | O=C(O)c1cc2cc(-c3nccc(C(F)F)n3)ccc2[nH]1 | > 99.5 µM

Row | SMILES | IC50
27 | NCc1cccc(NC(=O)[C@H](NC(=O)OCc2ccccc2)c2cccc(OCc3ccccn3)c2)c1 | > 99.5 µM
28 | O=C1NCc2ccccc2C12CCN(Cc1cc3ccc(F)cc3[nH]1)CC2 | > 99.5 µM
29 | NCc1cccc(NC(=O)C[C@H](NC(=O)OCc2ccccc2)c2ccc(Cl)c(Br)c2)c1 | 20.7 µM and 18.8 µM and 15.9 µM and 15.5 µM
30 | O=C(O)c1ccc(C2CCN(Cc3c[nH]c4ccccc34)CC2)cc1 | > 99.5 µM
31 | CCCCCC(=O)N[C@H](C(=O)NCc1ccc(NC(=N)N)cc1)c1ccc(OCc2ccccc2)cc1 | > 99.5 µM
32 | FC1(c2cccnc2)CN(Cc2c[nH]c3ccccc23)C1 | > 99.5 µM
33 | Nc1noc2cccc(C(=O)Nc3ccc4c(c3)CNC4)c12 | 0.977 µM
34 | O=C(Nc1cc([C@H]2CCOC2)ccn1)c1cc(Cl)cc2c1CCC2 | > 25 µM
35 | O=C(Nc1cc(Cl)cc(C(=O)Nc2ccc([C@@H]3C[C@H]3C(=O)O)cc2)c1)OCc1ccccc1 | 44.3 µM
36 | COc1cccc(-c2nc3c(C(=O)Nc4ccc5c(c4)CNC5)cc(F)cc3[nH]2)c1 | 0.046 µM and 0.042 µM and 0.025 µM
37 | O=C(O)c1cc(Cl)ccc1NS(=O)(=O)c1ccc(-c2ccccc2F)cc1 | 29.2 µM
38 | Cn1cc(N2CCN(Cc3c[nH]c4ccccc34)CC2)cn1 | > 99.5 µM
39 | C#Cc1cc(NC(=O)OCc2ccccc2)cc(C(=O)Nc2cccc(CN)c2)c1 | 36.4 µM
40 | O=C(Nc1ccc2c(c1)CNC2)c1ncnc2sccc12 | > 99.5 µM
41 | N=C(N)NCCc1ccc(OC(=O)Nc2ccccc2)cc1 | > 100 µM
42 | CCn1cc(-c2ccncc2F)nc(N2CC[C@@H](CO)C2)c1=O | > 99.5 µM
43 | c1cncc(C2CC(NCc3n[nH]c4ccccc34)C2)c1 (stereo not given) | > 99.5 µM
44 | O=C(Nc1ccc(-c2nnn[nH]2)cc1)c1cc(Cl)cc(C2CC2)c1 | > 99.5 µM
45 | CCn1ccnc(N2CC[C@@H](CO)C2)c1=O | > 99.5 µM
46 | Clc1ccc2[nH]ncc2c1[C@@H]1C[C@H]1c1ccc2c(c1)CNC2 | 22.4 µM
47 | Cn1ccnc1C(=O)N[C@H](C(=O)Nc1cccc(CN)c1)c1ccc(OCc2ccccc2)cc1 | > 99.5 µM
48 | CCO[C@@H]1CC[C@H]1NC(=O)c1cccc2c1CC(=O)N2 | > 25 µM
49 | NCc1cccc(NC(=O)[C@H](NC(=O)OCc2ccccc2)c2ccc(OCc3ccncn3)cc2)c1 | 83 µM
50 | Cc1nnnn1Cc1ncc(Br)s1 | > 99.5 µM
51 | N[C@H]1CC[C@H](c2ccc(NC(=O)c3cc(Cl)cc4[nH]ncc34)cc2)C1 | 8.51 µM

Now from value to compound:

Row | IC50 | SMILES
52 | 0.046 µM and 0.043 µM | O=C(Nc1ccc2c(c1)CNC2)c1cccc2[nH]c(C(F)(F)F)cc12
53 | > 99.5 µM | O=C(NCc1nnn[nH]1)c1cc(Cl)ccc1NS(=O)(=O)c1ccc(Oc2ccccc2Cl)cc1
54 | > 99.5 µM | O=C(N[C@@H](C(=O)NCc1c[nH]cn1)c1ccc(OCc2ccccc2)cc1)OCc1ccccc1
55 | 56.4 µM | NCc1cccc(NC(=O)c2cccc3c2O[C@H](c2ccccc2)C(=O)N3)c1
56 | > 99.5 µM | Cc1cc(C(=O)Nc2cccc(CN)c2)nc2c(C(C)C)cnn12
57 | > 25 µM | O=C(Nc1cc(-c2cccnc2)ccn1)c1cnn2c1CCC2
58 | > 25 µM | Cc1nc2ccc(C(=O)Nc3ccc4c(c3)CNC4)cc2s1
59 | > 25 µM | O=C1Cc2c(cccc2C(=O)N[C@H]2CCc3cnccc32)N1
60 | 74.4 µM | NCc1cccc(NC(=O)c2cc(F)cc(NC(=O)OCc3ccccc3)c2F)c1
61 | > 25 µM | C#Cc1ccnc(NC(=O)c2cc(C3CC3)n(C)c2C)c1
62 | 8.78 µM | O=C(Nc1cc(Cl)cc(C(=O)Nc2ccc(N3CCCNCC3)cc2)c1)OCc1ccccc1
63 | 12.6 µM | CCc1ccccc1COc1ccc(S(=O)(=O)Nc2ccc(Cl)cc2C(=O)O)cc1
64 | > 99.5 µM | CS(=O)(=O)c1ccc(NC(=O)c2cc(Cl)cc(NC(=O)OCc3ccccc3)c2)cc1
65 | 23 nM (2×) and 13 nM | O=C(Nc1ccc2c(c1)CNC2)c1cc(F)cc2[nH]c(-c3ccccc3F)nc12
66 | 16.3 µM and 13.9 µM | NCCc1ccc(CNC(=O)[C@@H](NC(=O)OCc2ccccc2)c2ccc(OCc3ccccc3)cc2)cc1
67 | 25 µM | O=Cc1ccc(N2CCC(C(=O)NCCN3CCc4ccccc43)CC2)cc1
68 | 0.058 µM and 0.037 µM | O=C(NCC(F)F)[C@H](Nc1ccc2c(c1)CNC2)c1cc(F)cc2[nH]ncc12
69 | 0.033 µM and 0.03 µM and 0.023 µM | COc1cc(-c2cc(NC(=O)c3cc(F)cc4[nH]ncc34)cc3c2CNC3)ccn1
70 | > 99.5 µM | O=C(Nc1cc(Cl)cc([C@H](Nc2cccc(-c3nn[nH]n3)c2)C(=O)NC[C@H]2CCCO2)c1)OCc1ccccc1
71 | > 99.5 µM | CCn1c(=O)c(N2C[C@@H](CO)[C@H](c3cncn3C)C2)nc2ccccc21
72 | 1.42 µM | CNCc1cc(Cl)cc(C(=O)Nc2cccc(CN)c2)c1
73 | > 99.5 µM | O=C(Cn1ccnc(N2CC[C@H](CO)C2)c1=O)NCc1cc[nH]n1
74 | > 25 µM | O=C(Nc1ccc2c(c1)C(=O)OC2)c1cccc(CC2CNC2)c1
75 | > 99.5 µM | Cc1c(C(F)(F)F)n[nH]c1CN1CCC(c2cscn2)CC1
76 | > 25 µM | CCOC(=O)c1csc([C@H]2CCCN2C(=O)Nc2ccc3c(c2)CNC3)n1
77 | 78.4 µM | NCc1cccc(NC(=O)c2cc3c(c(NC(=O)OCc4ccccc4)c2)OCC3)c1
78 | 0.785 µM | COCc1cc(Cl)cc(C(=O)Nc2ccc3c(c2)CNC3)c1

Row | IC50 | SMILES
79 | 19.5 µM | C[C@@]1(c2cc(Cl)cc(NC(=O)OCc3ccccc3)c2)C[C@H]1c1cccc(CN)c1
80 | > 99.5 µM | CCc1cc(C(=O)Nc2cccc(-c3nnn[nH]3)c2)nn1-c1ccccc1
81 | > 99.5 µM | NC1(c2cccc(NC(=O)c3cc(Cl)cc(NC(=O)OCc4ccccc4)c3)c2)CC1
82 | > 25 µM | Cc1ccc(NC(=O)c2cc(C3CC3)n(C)c2C)cc1-c1cccnc1
83 | 5.55 µM | NCc1cccc(NC(=O)c2cc(Cl)cc(Cl)c2)c1
84 | 0.268 µM | C#Cc1cc(Cl)cc(C(=O)Nc2ccc3c(c2)CNC3)c1
85 | > 25 µM | Cc1c(C(=O)Nc2cc(-c3cccnc3)ccn2)cc(C#N)n1C
86 | 51.9 µM | NCc1ccc2nc(-c3cc(Cl)cc(NC(=O)OCc4ccccc4)c3)c(CCCO)cc2c1
87 | > 99.5 µM | NCc1cccc(NC(=O)[C@@H](NC(=O)OCc2ccccc2)c2cccc(F)c2F)c1
88 | > 99.5 µM | O=S(=O)(Nc1cccc(-c2nnn[nH]2)c1)c1cc(Cl)cc(C(F)(F)F)c1
89 | > 99.5 µM | C[C@@H](NC(=O)c1cc(Cl)ccc1NS(=O)(=O)c1ccc(Oc2ccccc2Cl)cc1)[C@H]1CCCO1
90 | > 99.5 µM | CCNC(=O)c1ccc2nc(N3CC[C@H](CO)C3)c(=O)n(CC)c2c1
91 | > 99.5 µM | NCc1cccc(NC(=O)c2c(C(F)F)nc3cnccn23)c1
92 | > 99.5 µM | COC(=O)c1cc2scc(Br)c2[nH]1
93 | > 99.5 µM | CCn1cc(-c2ccccc2)nc(N2CC[C@@H](CO)C2)c1=O
94 | > 99.5 µM | CCn1c(=O)c(N2C[C@H]3C[C@H]2CS(=O)(=O)C3)nc2ccccc21
95 | > 99.5 µM | Cc1cccc(N2CCC(NS(=O)(=O)c3ccc(Cl)cc3C(=O)O)CC2)n1
96 | > 25 µM | COCCNC(=O)[C@H](Nc1cccc([C@H]2CCOC2)c1)c1cc(Cl)cc2[nH]ncc12
97 | 1.48 µM | O=C1Cc2c(cccc2C(=O)Nc2ccc3c(c2)CNCCO3)N1
98 | > 99.5 µM | Cc1cc(C#N)cc2c(Cc3ccc(-c4nnn[nH]4)cc3)c[nH]c12
99 | > 25 µM | C[C@H]1CC2(CN1C(=O)Nc1ccc3c(c1)CNC3)CC(F)(F)C2
100 | > 99.5 µM | C=CC[C@H](Nc1cccc(Cl)c1)c1cccc(-c2nn[nH]n2)c1
101 | 0.274 µM | Cn1ncc2c(C(=O)Nc3ccc4c(c3)CNC4)cc(Br)cc21
102 | 37.6 µM | COc1ccccc1-c1ccc(S(=O)(=O)Nc2ccc(Cl)cc2C(=O)O)cc1
103 | > 25 µM | CNC(=O)c1ccnc(NC(=O)c2cc(C3CC3)n(C)c2C)c1
104 | 98.8 µM | COCc1ccccc1Nc1ccc(S(=O)(=O)Nc2ccc(Cl)cc2C(=O)O)cn1
105 | 0.022 µM and 0.023 µM and 0.014 µM | O=C(Nc1ccc2c(c1)CNC2)c1cc(F)cc2[nH]c(-c3ccc(F)cc3)nc12
